Data from patent US8883798B2, “Pyrimidine compounds inhibiting the formation of nitric oxide and prostaglandin E2, method of production thereof and use thereof” (Ustav Organicke Chemie a Biochemie Akademie Ved CR, V.V.I., priority 2011, dated 2014).

Legend:
peritoneal cells of mice = test: Cell viability of mouse peritoneal cells (WST-1 kit); format: cell-based; details: substance 50 μmol·l^−1, 24 h; for Cell viabilities in % of the controls: Table 3B; for Cell viability in % of the controls: Table 3A
Method: Cell viability was determined in the standard way using a WST-1 kit (Roche). The values of the viability of the control cells were for the purposes of comparison between experiments considered as 100%. The influence of the substances on the longevity of the cells was evaluated in percentage with respect to the control values.
(§1) Experiments were performed on mice peritoneal cells C57BL/6 (Charles River, Germany—AnLabu).
(§2) NO production was induced using IFN-g (5000 pg/mL) plus LPS (100 pg/mL); evaluated (Griess reagent) after 24 h of the cell cultivation (2×10^6/mL). PGE2 was induced using LPS (10 ng/mL); evaluated (ELISA) following 6 h cultivation of cells (3×10^6/mL). Cell longevity was evaluated using WST-1 (tetrazolium salt), following 24 h cultivation of cells (1×10^6/mL). The values mentioned in the table represent the effects of the substances tested in a concentration of 50 μmol·l^−1.

[1] = test system: production of prostaglandin E2 (PGE2); test: Production of prostaglandin E2 (PGE2) in cultures of mouse peritoneal cells stimulated with LPS (ELISA kit); format: cell-based, mice; details: for Production of prostaglandins IC50 (μmol · 1^−1) average value and range of values: Table 3B, 6 h; for Production of prostaglandins in % of the controls: Table 3A, substance 50 μmol·l^−1, 6 h
Method: (§3) Under in vitro conditions, the effect of the pyrimidine compounds according to this invention was tested in terms of the production of nitric oxide (NO) and in terms of the production of prostaglandin E2 (PGE2) in cultures of the peritoneal cells of mice.
The influence on the production of prostaglandin E2 (PGE2) in vitro caused by the activity of the pyrimidine compounds according to the submitted invention was determined in cultures of the peritoneal cells of mice using a commercial kit (R&DSystems). The concentrations of PGE2 after lipopolysacharide (LPS) stimulation reached in the individual experiments values in a range of 22 to 91 ng·ml^−1 and for the purposes of comparison between the experiments were considered as 100%. The influence of the substances on the production of PGE2 was evaluated in percentage with respect to the control values.
as §1, §2

[2] = test system: production of nitric oxide (NO); test: Production of nitric oxide (NO) in cultures of mouse peritoneal cells stimulated with IFN-γ plus LPS (Griess reagent); format: cell-based, mice; details: substance 50 μmol·l^−1, IFN-g plus LPS, 24 h
Method: as §3
NO is a product of the metabolism of L-arginine, quickly changes to […], which are then measured using the Griess reagent system. Under normal conditions, the production of NO is practically zero. It only occurs after some stimulation. In these experiments, interferon-gamma (IFN-γ) and bacterial lipopolysacharide (LPS) were used as stimulators. The values of NO induced in this way fluctuated in the individual experiments in a range from 52 to 89 μmol·l^−1; for the purposes of comparison between the experiments they were considered as 100%. The production of NO after the application of the substances was expressed in percentage with respect to the control values. (The lower the value, the higher the inhibition effect of the substances on NO production.) IC50 are the concentrations of the substances reducing the production of NO by 50% with respect to the controls.
as §1, §2

Row | SMILES | Cell viabilities in % of the controls (peritoneal cells of mice) | Production of prostaglandins IC50 (μmol · 1^−1) average value and range of values [1] | Production of nitric oxide in % of the controls ([2]; Table 3B) | Cell viability in % of the controls (peritoneal cells of mice) | Production of prostaglandins in % of the controls [1] | Production of nitric oxide in % of the controls ([2]; Table 3A)
1 | CCCCc1c(-c2ccsc2)nc(N)nc1-c1ccsc1 [Substance 114] | 118.67 ± 2.26; n = 8 % of the controls | 37.00 ± 16.33; n = 4 μmol · 1^−1 | 70.51 ± 5.78; n = 4 % of the controls |  |  | 
2 | C=CCc1c(Cl)nc(N=CN(C)C)nc1Cl [Substance 17] |  |  |  | 136.13 ± 11.32 % of the controls | 15.72 ± 0.46 % of the controls | 6.2 ± 0.91 % of the controls
3 | CCCCc1c(-c2cccs2)nc(N)nc1-c1cc2ccccc2s1 [Substance 130] | 130.68 ± 8.17; n = 12 % of the controls | 56.31 ± 19.61; n = 8 μmol · 1^−1 | 43.43 ± 7.18; n = 10 % of the controls |  |  | 
4 | CCCCc1c(-c2ccco2)nc(N)nc1-c1cc2ccccc2o1 [Substance 122] | 81.66 ± 4.41; n = 8 % of the controls | 68.47 ± 8.71; n = 2 μmol · 1^−1 | 35.04 ± 5.71; n = 6 % of the controls |  |  | 
5 | CCCCc1c(-c2ccncc2)nc(N)nc1-c1cc2ccccc2o1 [Substance 120] | 92.51 ± 2.77; n = 4 % of the controls | 83.44 ± 11.03; n = 2 μmol · 1^−1 | 65.32 ± 3.72; n = 4 % of the controls |  |  | 
6 | CCCCc1c(-c2ccoc2)nc(N)nc1-c1cccc2ccccc12 [Substance 139] | 104.41 ± 10.83; n = 8 % of the controls | 18.35 ± 3.26; n = 4 μmol · 1^−1 | 70.38 ± 4.95; n = 6 % of the controls |  |  | 
7 | CCCCc1c(-c2ccccc2)nc(N)nc1-c1cccs1 [Substance 86] | 101.59 ± 9.19; n = 8 % of the controls | 27.57 ± 8.77; n = 4 μmol · 1^−1 | 47.57 ± 8.58; n = 6 % of the controls |  |  | 
8 | O=CNc1nc(Cl)c(Cc2ccccc2)c(Cl)n1 [Substance 59] |  |  |  | 58.75 ± 5.34 % of the controls | 3.84 ± 0.11 % of the controls | 0.15 ± 0.01 % of the controls
9 | CCCCc1c(-c2cccnc2)nc(N)nc1-c1cccs1 [Substance 90] | 69.80 ± 6.79; n = 4 % of the controls | 31.93 ± 15.87; n = 4 μmol · 1^−1 | 50.11 ± 3.95; n = 4 % of the controls |  |  | 
10 | CCCCc1c(-c2ccccc2)nc(N)nc1-c1ccc(F)cc1 [Substance 69] | 121.04 ± 9.53; n = 4 % of the controls | 75.40 ± 21.62; n = 4 μmol · 1^−1 | 71.24 ± 4.28; n = 4 % of the controls |  |  | 
11 | CCCCc1c(-c2ccc(OC)cc2)nc(N)nc1-c1ccsc1 [Substance 109] | 120.58 ± 7.53; n = 8 % of the controls | 4.9 ± 1.72; n = 4 μmol · 1^−1 | 73.38 ± 4.58; n = 6 % of the controls |  |  | 
12 | CCCCc1c(Cl)nc(N)nc1-c1ccoc1 [Substance 106] | 100.38 ± 5.55; n = 8 % of the controls | 22.10 ± 3.44; n = 4 μmol · 1^−1 | 54.83 ± 2.82; n = 4 % of the controls |  |  | 
13 | CCCCc1c(-c2ccccn2)nc(N)nc1-c1cc2ccccc2o1 [Substance 118] | 91.38 ± 4.41; n = 8 % of the controls | 52.17 ± 14.96; n = 6 μmol · 1^−1 | 56.53 ± 3.33; n = 8 % of the controls |  |  | 
14 | CCCCc1c(-c2ccoc2)nc(N)nc1-c1ccsc1 [Substance 113] | 101.51 ± 12.74; n = 8 % of the controls | 85.05 ± 9.96; n = 4 μmol · 1^−1 | 63.79 ± 1.64; n = 6 % of the controls |  |  | 
15 | CCCCc1c(-c2ccccc2)nc(N)nc1-c1ccccn1 [Substance 76] | 97.97 ± 5.33; n = 8 % of the controls | 42.94 ± 11.04; n = 6 μmol · 1^−1 | 45.05 ± 3.55; n = 4 % of the controls |  |  | 
16 | CCCCc1c(Cl)nc(NC2CC2)nc1Cl [Substance 143] | 104.31 ± 8.28; n = 8 % of the controls | 85.94 ± 12.69; n = 4 μmol · 1^−1 | 78.33 ± 13.82; n = 6 % of the controls |  |  | 
17 | CCC(C)c1c(Cl)nc(NC=O)nc1Cl (stereo not drawn) [Substance 54] |  |  |  | 77.51 ± 14.73 % of the controls | 30.48 ± 1.79 % of the controls | 0.17 ± 0.17 % of the controls
18 | CCCCc1c(-c2ccc(OC)cc2)nc(N)nc1-c1ccco1 [Substance 96] | 113.53 ± 4.93; n = 8 % of the controls | 43.05 ± 21.74; n = 4 μmol · 1^−1 | 50.99 ± 2.60; n = 4 % of the controls |  |  | 
19 | CCCCc1c(Cl)nc(S)nc1Cl [Substance 149] | 99.14 ± 6.73; n = 8 % of the controls | 26.35 ± 10.89; n = 4 μmol · 1^−1 | 24.12 ± 11.22; n = 6 % of the controls |  |  | 
20 | CCCCc1c(-c2ccc(F)cc2)nc(N)nc1-c1cccnc1 [Substance 79] | 104.50 ± 6.37; n = 8 % of the controls | 47.26 ± 5.67; n = 2 μmol · 1^−1 | 62.58 ± 2.32; n = 6 % of the controls |  |  | 
21 | CCCCc1c(-c2cccnc2)nc(N)nc1-c1ccco1 [Substance 97] | 45.54 ± 4.96; n = 8 % of the controls | 48.18 ± 19.94; n = 4 μmol · 1^−1 | 37.05 ± 6.68; n = 6 % of the controls |  |  | 
22 | CCCCc1c(-c2ccco2)nc(N)nc1-c1cc2ccccc2s1 [Substance 131] | 98.88 ± 1.65; n = 8 % of the controls | 83.56 ± 5.83; n = 4 μmol · 1^−1 | 49.76 ± 4.85; n = 4 % of the controls |  |  | 
23 | CCCCc1c(-c2ccoc2)nc(N)nc1-c1cc2ccccc2o1 [Substance 123] | 42.62 ± 11.49; n = 12 % of the controls | 35.10 ± 14.56; n = 4 μmol · 1^−1 | 11.15 ± 2.99; n = 6 % of the controls |  |  | 
24 | CCCCc1c(-c2ccc(F)cc2)nc(N)nc1-c1ccsc1 [Substance 108] | 124.71 ± 15.20; n = 4 % of the controls | 47.21 ± 2.59; n = 2 μmol · 1^−1 | 64.92 ± 2.30; n = 4 % of the controls |  |  | 
